Data from patent publication US12459956B2, “Heterobicyclic carboxamides and uses thereof” (ALCON INC., priority 2019, dated 2025).
pIC50: −log10 of the molar value.

Molecular target: ROCK2 (Homo sapiens (Human), UniProt O75116)
Experiment: ROCK Kinase Inhibition Assay (ROCK2)
Format: biochemical
Settings: KINASE-GLO luminescent kinase assay
Protocol: (§1) All compounds were initially prepared as 10 mM stocks in anhydrous dimethylsulfoxide (DMSO). A 20 μL aliquot of the 10 mM solutions was transferred to individual wells in column 1 of a 96-well polypropylene microtiter plate (Corning #3363) and diluted with DMSO to give a final compound concentration of 4 mM. Test compounds were then serially diluted 1:5 in DMSO for an 11-point concentration response and further diluted in the assay buffer bringing all compound concentrations to a final range of 100 μM to […] in 2.5% DMSO. The assay was performed in white 96-well, flat-bottom, half-area, non-binding assay plate (Corning #3642) in assay buffer consisting of 20 mM HEPES (pH 7.5), 10 mM MgCl2*6H2O, 100 μM sodium orthovanadate, 0.05% CHAPS and 0.1% bovine serum albumin. […] The reaction was initiated by the addition of 10 μL of 4× stock solution ATP (2 μM). Reactions were thoroughly mixed manually, covered and allowed to incubate at room temperature for 75 min. Protein kinase activity was quantitated using Promega's KINASE-GLO™ luminescent Kinase Assay Kit according to the manufacturer's directions. ATP concentrations remaining in Test wells following the termination of the enzymatic reaction were compared against control wells containing equivalent amounts of DMSO containing no inhibitor (CTRL). […] Percent of Control (POC) values were determined for each concentration of compound tested according to the equation: POC=((Test well value−BKG)/(CTRL−BKG))*100 IC50 values were calculated using the following 4-parameter logistic curve-fitting algorithm: f(x)=(A+((B−A)/(1+((x/C)^D)))) IC50 values were converted to Ki values using the following Cheng-Prusoff Equation: Ki=IC50/(1+([ATP]/Km ATP])). JAK Kinase Assays.

ROCK2, sequence (O75116 whole entry, species assumed): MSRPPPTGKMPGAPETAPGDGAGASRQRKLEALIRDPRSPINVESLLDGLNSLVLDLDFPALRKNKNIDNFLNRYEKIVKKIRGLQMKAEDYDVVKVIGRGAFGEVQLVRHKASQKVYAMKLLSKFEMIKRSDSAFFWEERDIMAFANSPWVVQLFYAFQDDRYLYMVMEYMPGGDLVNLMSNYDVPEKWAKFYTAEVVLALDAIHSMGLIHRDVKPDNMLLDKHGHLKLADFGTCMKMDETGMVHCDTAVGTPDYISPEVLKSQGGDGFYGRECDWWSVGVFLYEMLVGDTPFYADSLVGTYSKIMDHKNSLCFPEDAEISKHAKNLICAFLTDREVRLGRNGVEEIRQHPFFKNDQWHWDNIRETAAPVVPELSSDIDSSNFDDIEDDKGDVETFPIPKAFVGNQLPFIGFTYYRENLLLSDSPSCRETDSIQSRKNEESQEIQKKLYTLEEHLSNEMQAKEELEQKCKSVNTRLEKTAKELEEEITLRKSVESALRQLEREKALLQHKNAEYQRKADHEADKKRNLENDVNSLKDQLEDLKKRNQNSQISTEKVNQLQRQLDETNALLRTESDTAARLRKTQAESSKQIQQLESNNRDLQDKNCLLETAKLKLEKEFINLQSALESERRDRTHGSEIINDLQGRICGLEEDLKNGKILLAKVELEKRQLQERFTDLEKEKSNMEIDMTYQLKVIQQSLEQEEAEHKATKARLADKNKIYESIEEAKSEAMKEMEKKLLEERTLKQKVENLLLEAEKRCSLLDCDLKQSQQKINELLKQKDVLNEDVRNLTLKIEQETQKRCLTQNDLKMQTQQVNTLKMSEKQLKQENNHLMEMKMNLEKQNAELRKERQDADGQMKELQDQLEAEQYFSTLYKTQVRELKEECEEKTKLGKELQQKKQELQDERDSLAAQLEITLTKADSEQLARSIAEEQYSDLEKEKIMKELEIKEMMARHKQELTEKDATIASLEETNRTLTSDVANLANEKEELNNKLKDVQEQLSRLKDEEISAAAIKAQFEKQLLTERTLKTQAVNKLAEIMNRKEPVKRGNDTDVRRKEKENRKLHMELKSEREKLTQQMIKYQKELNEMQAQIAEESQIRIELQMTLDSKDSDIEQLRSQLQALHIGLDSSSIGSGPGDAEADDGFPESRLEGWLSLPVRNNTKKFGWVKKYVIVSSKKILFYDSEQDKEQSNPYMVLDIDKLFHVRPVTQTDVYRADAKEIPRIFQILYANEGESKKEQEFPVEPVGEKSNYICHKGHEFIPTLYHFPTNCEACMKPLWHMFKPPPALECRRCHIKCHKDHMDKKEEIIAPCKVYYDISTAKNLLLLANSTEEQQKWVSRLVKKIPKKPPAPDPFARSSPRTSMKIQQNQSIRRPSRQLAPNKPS

| SMILES | pIC50 |
| --- | --- |
| O=C(Nc1nc2ccncc2s1)[C@@H]1CC1c1ccc(S(=O)(=O)Nc2ccccn2)cc1 (mixture of isomers) [Compound 3] | 8.22 |
| O=C(Nc1ccc2cnccc2n1)[C@@H]1CC1c1ccc(S(=O)(=O)Nc2ccccn2)cc1 (mixture of isomers) [Compound 4] | 8.22 |
| Cc1cncc2sc(NC(=O)C3CC3c3cc(C(=O)NCc4ncccn4)cs3)cc12 (centres unmarked) [Compound 2] | 8.30 |
| O=C(Nc1ccc2cnccc2n1)C1CC1c1ccccc1 (centres unmarked) [Compound 11] | 8.15 |
| O=C(Nc1nc2ccncc2s1)C1CC1c1ccccc1 (centres unmarked) [Compound 12] | 7.92 |
| Cc1cncc2sc(NC(=O)[C@@H]3C[C@H]3c3ccccc3)cc12 [Compound 13] | 7.74 |
| Cc1cncc2sc(NC(=O)C3CC3c3ccncc3)cc12 (centres unmarked) [Compound 14] | 6.64 |
| Cc1cncc2sc(NC(=O)C3CC3c3ccccc3)cc12 (centres unmarked) [Compound 16] | 7.27 |
| O=C(Nc1ccc2cnccc2n1)C1CC1c1ccncc1 (centres unmarked) [Compound 17] | 7.52 |
| O=C(Nc1nc2ccncc2s1)C1CC1c1ccncc1 (centres unmarked) [Compound 18] | 7.52 |
| O=C(Nc1cc2c(Cl)cncc2s1)C1CC1c1ccncc1 (centres unmarked) [Compound 21] | 6.95 |

Molecular target: ROCK1 (Homo sapiens (Human), UniProt Q13464)
Sequence (Q13464 whole entry, species assumed): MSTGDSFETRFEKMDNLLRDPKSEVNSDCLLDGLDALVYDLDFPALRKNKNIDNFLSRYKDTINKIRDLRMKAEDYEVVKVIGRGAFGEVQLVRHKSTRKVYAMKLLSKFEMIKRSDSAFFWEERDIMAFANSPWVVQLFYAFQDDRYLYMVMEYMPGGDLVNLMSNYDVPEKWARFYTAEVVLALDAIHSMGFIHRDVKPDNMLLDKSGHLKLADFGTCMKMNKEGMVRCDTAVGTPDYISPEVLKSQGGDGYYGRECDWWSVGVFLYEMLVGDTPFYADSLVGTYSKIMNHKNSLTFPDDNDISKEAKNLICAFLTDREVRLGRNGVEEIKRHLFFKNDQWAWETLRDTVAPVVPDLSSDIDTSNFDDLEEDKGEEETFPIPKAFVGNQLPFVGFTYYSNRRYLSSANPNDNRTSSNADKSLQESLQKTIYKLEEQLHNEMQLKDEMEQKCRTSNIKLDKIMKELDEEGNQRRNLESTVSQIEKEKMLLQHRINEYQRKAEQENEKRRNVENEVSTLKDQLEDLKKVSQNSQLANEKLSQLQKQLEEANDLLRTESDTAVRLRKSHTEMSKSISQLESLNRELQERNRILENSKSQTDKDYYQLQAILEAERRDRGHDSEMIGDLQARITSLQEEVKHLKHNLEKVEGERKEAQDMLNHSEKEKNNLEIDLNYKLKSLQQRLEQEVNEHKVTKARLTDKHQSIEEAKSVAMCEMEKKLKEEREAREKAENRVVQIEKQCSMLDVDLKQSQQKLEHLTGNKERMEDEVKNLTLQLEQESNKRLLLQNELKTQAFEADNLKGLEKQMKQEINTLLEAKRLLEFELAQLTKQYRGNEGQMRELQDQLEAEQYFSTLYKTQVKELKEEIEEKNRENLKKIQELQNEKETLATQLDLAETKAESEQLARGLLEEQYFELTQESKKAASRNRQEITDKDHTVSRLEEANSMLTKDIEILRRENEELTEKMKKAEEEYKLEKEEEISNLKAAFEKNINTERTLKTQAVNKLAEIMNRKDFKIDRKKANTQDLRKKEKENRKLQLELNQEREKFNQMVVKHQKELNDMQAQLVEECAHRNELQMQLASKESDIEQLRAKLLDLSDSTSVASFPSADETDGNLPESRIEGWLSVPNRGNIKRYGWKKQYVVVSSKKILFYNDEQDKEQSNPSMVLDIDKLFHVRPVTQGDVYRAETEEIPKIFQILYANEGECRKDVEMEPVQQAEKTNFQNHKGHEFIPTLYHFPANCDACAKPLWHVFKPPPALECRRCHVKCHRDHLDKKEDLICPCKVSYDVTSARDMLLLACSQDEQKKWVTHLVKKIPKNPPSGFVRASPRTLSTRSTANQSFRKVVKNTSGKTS
Experiment: ROCK Kinase Inhibition Assay (ROCK1)
Format: biochemical
Settings: KINASE-GLO luminescent kinase assay
Protocol: as §1, with “Reactions were thoroughly mixed manually, covered and allowed to incubate at room temperature for 75 min.” left out, “directions.” for “directions. ATP concentrations remaining in Test wells following the termination of the enzymatic reaction were compared against control wells containing equivalent amounts of DMSO containing no inhibitor (CTRL).”, “JAK Kinase Assays.” left out

| SMILES | pIC50 |
| --- | --- |
| O=C(Nc1nc2ccncc2s1)[C@@H]1CC1c1ccc(S(=O)(=O)Nc2ccccn2)cc1 (mixture of isomers) [Compound 3] | 8.15 |
| O=C(Nc1cc2c(Cl)cncc2s1)C1CC1c1ccccc1 (centres unmarked) [Compound 19] | 7.37 |

Molecular target: JAK1 (Homo sapiens (Human), UniProt P23458)
Experiment: JAK Kinase Assay (JAK1)
Format: biochemical
Settings: KINASE-GLO luminescent kinase assay

| SMILES | pIC50 |
| --- | --- |
| O=C(Nc1cc2c(Cl)cncc2s1)[C@@H]1C[C@H]1c1ccccc1 [Compound 15] | 6.46 |

Molecular target: TYK2 (Homo sapiens (Human), UniProt P29597)
Sequence (P29597 whole entry, species assumed): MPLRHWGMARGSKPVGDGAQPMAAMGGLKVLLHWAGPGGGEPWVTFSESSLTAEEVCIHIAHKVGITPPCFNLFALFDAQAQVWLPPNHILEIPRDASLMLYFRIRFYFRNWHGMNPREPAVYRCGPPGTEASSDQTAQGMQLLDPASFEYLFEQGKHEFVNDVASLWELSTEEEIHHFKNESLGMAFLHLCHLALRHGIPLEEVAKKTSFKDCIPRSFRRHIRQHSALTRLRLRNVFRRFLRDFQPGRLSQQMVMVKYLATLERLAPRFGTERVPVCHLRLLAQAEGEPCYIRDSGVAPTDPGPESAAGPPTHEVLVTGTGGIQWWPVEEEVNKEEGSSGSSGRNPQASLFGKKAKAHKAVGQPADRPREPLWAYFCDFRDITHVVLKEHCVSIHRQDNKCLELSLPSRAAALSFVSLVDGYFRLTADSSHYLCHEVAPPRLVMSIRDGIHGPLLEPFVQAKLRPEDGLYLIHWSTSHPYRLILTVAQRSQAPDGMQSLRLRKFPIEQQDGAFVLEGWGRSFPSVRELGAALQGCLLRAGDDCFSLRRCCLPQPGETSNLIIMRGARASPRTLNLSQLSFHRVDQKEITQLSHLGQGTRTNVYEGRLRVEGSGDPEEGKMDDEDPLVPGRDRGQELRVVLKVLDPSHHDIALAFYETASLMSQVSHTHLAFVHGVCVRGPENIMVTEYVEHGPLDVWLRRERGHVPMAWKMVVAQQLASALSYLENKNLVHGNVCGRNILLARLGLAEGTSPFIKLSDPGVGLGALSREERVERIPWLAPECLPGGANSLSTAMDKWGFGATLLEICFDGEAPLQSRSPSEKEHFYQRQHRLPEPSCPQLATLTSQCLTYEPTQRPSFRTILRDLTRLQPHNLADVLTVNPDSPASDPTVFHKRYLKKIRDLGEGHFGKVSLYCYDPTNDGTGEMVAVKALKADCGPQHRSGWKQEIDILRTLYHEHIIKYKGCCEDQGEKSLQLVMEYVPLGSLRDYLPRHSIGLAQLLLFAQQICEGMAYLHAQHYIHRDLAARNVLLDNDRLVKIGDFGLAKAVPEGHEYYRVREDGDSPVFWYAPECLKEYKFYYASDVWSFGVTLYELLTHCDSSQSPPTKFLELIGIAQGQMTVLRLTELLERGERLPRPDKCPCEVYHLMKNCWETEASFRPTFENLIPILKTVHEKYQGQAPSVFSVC
Experiment: JAK Kinase Assay (TYK2)
Format: biochemical
Settings: KINASE-GLO luminescent kinase assay

| SMILES | pIC50 |
| --- | --- |
| Cc1cncc2sc(NC(=O)[C@@H]3C[C@H]3c3ccc(S(=O)(=O)Nc4ccccn4)cc3)cc12 [Compound 6] | 8.10 |
| O=C(Nc1cc2c(Cl)cncc2s1)[C@@H]1C[C@H]1c1ccc(S(=O)(=O)Nc2ccccn2)cc1 [Compound 7] | 8.96 |
| O=C(NCc1ncccn1)c1csc(C2CC2C(=O)Nc2cc3c(Cl)cncc3s2)c1 (centres unmarked) [Compound 20] | 7.46 |

Molecular target: JAK2 (Homo sapiens (Human), UniProt O60674)
Sequence (O60674 whole entry, species assumed): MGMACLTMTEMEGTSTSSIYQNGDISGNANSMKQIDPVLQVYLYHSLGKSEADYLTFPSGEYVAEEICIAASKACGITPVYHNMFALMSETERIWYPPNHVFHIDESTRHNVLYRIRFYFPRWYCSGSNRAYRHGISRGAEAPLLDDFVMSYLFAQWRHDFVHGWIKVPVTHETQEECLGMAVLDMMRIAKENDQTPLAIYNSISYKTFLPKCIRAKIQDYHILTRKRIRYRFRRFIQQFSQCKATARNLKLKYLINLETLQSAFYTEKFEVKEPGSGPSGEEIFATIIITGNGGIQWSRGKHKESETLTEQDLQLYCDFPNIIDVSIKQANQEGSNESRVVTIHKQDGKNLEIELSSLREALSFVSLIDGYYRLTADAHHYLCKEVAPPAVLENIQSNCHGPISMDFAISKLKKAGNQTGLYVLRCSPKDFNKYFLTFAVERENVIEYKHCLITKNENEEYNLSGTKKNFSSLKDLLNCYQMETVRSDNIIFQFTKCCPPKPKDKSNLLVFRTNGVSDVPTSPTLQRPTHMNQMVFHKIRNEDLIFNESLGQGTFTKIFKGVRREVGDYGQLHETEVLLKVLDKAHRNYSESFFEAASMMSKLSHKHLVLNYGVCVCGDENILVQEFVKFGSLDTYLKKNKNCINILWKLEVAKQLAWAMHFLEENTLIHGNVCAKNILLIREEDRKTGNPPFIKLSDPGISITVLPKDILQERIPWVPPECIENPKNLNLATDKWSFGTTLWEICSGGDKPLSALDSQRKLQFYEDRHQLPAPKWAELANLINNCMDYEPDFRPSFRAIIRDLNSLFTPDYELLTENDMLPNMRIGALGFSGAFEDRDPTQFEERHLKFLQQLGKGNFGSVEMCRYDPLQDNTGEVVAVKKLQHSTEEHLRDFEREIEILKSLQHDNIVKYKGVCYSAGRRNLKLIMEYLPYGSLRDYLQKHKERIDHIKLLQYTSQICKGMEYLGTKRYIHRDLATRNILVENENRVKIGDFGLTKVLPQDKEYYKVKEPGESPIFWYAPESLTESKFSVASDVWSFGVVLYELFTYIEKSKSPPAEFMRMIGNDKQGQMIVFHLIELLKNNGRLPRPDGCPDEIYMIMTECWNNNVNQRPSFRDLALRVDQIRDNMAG
Experiment: JAK Kinase Assay (JAK2)
Format: biochemical
Settings: KINASE-GLO luminescent kinase assay

| SMILES | pIC50 |
| --- | --- |
| O=C(Nc1ccc2cnccc2n1)[C@@H]1CC1c1ccc(S(=O)(=O)Nc2ccccn2)cc1 (mixture of isomers) [Compound 4] | 7.66 |
| Cc1cncc2sc(NC(=O)[C@@H]3C[C@H]3c3ccc(S(=O)(=O)Nc4ccccn4)cc3)cc12 (racemic) [Compound 5] | 8.05 |
| O=C(Nc1ccc2cnccc2n1)C1CC1c1ccc(S(=O)(=O)Nc2ccccn2)cc1 (centres unmarked) [Compound 22] | 7.66 |
